In paper PMC11037862 (ACS chemical neuroscience, 2023):

Biological target: S1PR1 (sphingosine-1-phosphate receptor 1) (Homo sapiens, UniProt P21453)
Test: saturation autoradiography with the tritiated ligand on human brain sections

Chain of S1PR1 (sphingosine-1-phosphate receptor 1) (P21453 whole entry): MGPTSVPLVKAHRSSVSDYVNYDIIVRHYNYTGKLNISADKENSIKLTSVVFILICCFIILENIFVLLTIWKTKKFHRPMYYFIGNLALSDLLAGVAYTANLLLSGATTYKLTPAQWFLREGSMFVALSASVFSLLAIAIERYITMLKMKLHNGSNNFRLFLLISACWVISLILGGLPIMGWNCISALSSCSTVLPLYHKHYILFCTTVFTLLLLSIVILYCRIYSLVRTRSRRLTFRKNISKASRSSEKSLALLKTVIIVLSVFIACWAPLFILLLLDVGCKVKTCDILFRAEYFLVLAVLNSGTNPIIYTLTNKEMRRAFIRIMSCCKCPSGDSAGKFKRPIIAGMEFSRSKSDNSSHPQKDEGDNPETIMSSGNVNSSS

## [^3H]CS1P1
  Kd: 2.7 ± 0.2 nM
